Source: ChEMBL document CHEMBL3872207, “Aromatic heterocyclic esters of podophyllotoxin exert anti-MDR activity in human leukemia K562/ADR cells via ROS/MAPK signaling pathways” (Eur J Med Chem, 2016)

Assays:
[1] = Downregulation of P-gp expression in human K562/ADR cells assessed as ratio of P-gp to beta-actin level at 0.1 uM pretreated with MAPK inhibitor U0126 for 1 hr followed by compound addition measured after 48 hrs by Western blot analysis (reference value: 0.63); type: functional, cell-based
[2] = Downregulation of CDK2 expression in human K562/ADR cells assessed as ratio of CDK2 to beta-actin level at 0.1 uM pretreated with MAPK inhibitor U0126 for 1 hr followed by compound addition measured after 48 hrs by Western blot analysis (reference value: 0.65); type: functional, cell-based
K562/Adr [3] = assay: Induction of apoptosis in human K562/ADR cells assessed as necrotic cells at 0.1 uM pretreated with MAPK inhibitor SP600125 for 1 hr followed by compound addition after 48 hrs by Annexin V-APC/7-AAD staining based flow cytometry (reference value: 0.26%); type: functional; design: scale not given: the % may be the effect or the level left
[4] = Downregulation of CyclinA expression in human K562/ADR cells assessed as ratio of CyclinA to beta-actin level at 0.1 uM measured after 48 hrs by Western blot analysis (reference value: 0.64); type: functional, cell-based
K562/Adr [5] = assay: Induction of ERK1/2 phosphorylation in human K562/ADR cells assessed as ratio of phosphorylated ERK1/2 to beta-actin level at 0.1 uM pretreated with ROS scavenger NAC for 2 hrs followed by compound addition after 48 hrs by Western blotting method (reference value: 0.22); type: cell-based
K562/Adr [6] = assay: Induction of ERK1/2 phosphorylation in human K562/ADR cells assessed as ratio of phosphorylated ERK1/2 to beta-actin level at 0.1 uM pretreated with MAPK inhibitor SB203580 for 1 hr followed by compound addition after 48 hrs by Western blotting method (reference value: 0.22); type: cell-based
K562/Adr [7] = assay: Induction of apoptosis in human K562/ADR cells assessed as late apoptotic cells at 0.1 uM pretreated with MAPK inhibitor SP600125 for 1 hr followed by compound addition after 48 hrs by Annexin V-APC/7-AAD staining based flow cytometry (reference value: 1.69%); type: functional; design: scale not given: the % may be the effect or the level left
K562/Adr [8] = assay: Induction of apoptosis in human K562/ADR cells assessed as ratio of cleaved caspase-8 to beta-actin level at 0.1 uM pretreated with MAPK inhibitor SB203580 for 1 hr followed by compound addition measured after 48 hrs by Western blot analysis (reference value: 0.07); type: functional
K562/Adr [9] = assay: Induction of apoptosis in human K562/ADR cells assessed as early apoptotic cells at 0.1 uM pretreated with MAPK inhibitor SB203580 for 1 hr followed by compound addition after 48 hrs by Annexin V-APC/7-AAD staining based flow cytometry (reference value: 2.74%); type: functional; design: scale not given: the % may be the effect or the level left
K562/Adr [10] = assay: Induction of apoptosis in human K562/ADR cells assessed as ratio of cleaved PARP to beta-actin level at 0.1 uM pretreated with MAPK inhibitor U0126 for 1 hr followed by compound addition measured after 48 hrs by Western blot analysis (reference value: 0.04); type: functional
K562/Adr [11] = assay: Induction of ERK1/2 phosphorylation in human K562/ADR cells assessed as ratio of phosphorylated ERK1/2 to beta-actin level at 0.1 uM measured after 48 hrs by Western blotting (reference value: 0.22); type: cell-based
K562/Adr [12] = assay: Induction of apoptosis in human K562/ADR cells assessed as necrotic cells at 0.1 uM after 48 hrs by Annexin V-APC/7-AAD staining based flow cytometry (reference value: 0.26%); type: functional
[13] = Antiproliferative activity against human K562/ADR cells measured after 72 hrs by CCK8 assay; type: functional, cell-based
[14] = Downregulation of CyclinB1 expression in human K562/ADR cells assessed as ratio of CyclinB1 to beta-actin level at 0.1 uM pretreated with MAPK inhibitor SB203580 for 1 hr followed by compound addition measured after 48 hrs by Western blot analysis (reference value: 0.77); type: functional, cell-based
K562/Adr [15] = assay: Induction of apoptosis in human K562/ADR cells assessed as viable cells at 0.1 uM pretreated with ROS scavenger NAC for 2 hrs followed by compound addition after 48 hrs by Annexin V-APC/7-AAD staining based flow cytometry (reference value: 95.31%); type: functional; conditions: read-out: Activity
K562/Adr [16] = assay: Induction of intracellular ROS accumulation in human K562/ADR cells assessed as fluorescence intensity at 0.1 uM measured after 24 hrs by DCFH-DA probe based flow cytometry relative to vehicle-treated control; type: functional
[17] = Downregulation of P-gp expression in human K562/ADR cells assessed as ratio of P-gp to beta-actin level at 0.1 uM pretreated with ROS scavenger NAC for 2 hrs followed by compound addition measured after 48 hrs by Western blot analysis (reference value: 0.63); type: functional, cell-based
[18] = Downregulation of CyclinA expression in human K562/ADR cells assessed as ratio of CyclinA to beta-actin level at 0.1 uM pretreated with MAPK inhibitor SP600125 for 1 hr followed by compound addition measured after 48 hrs by Western blot analysis (reference value: 0.64); type: functional, cell-based
K562/Adr [19] = assay: Induction of apoptosis in human K562/ADR cells assessed as late apoptotic cells at 0.1 uM after 48 hrs by Annexin V-APC/7-AAD staining based flow cytometry (reference value: 1.69%); type: functional
K562/Adr [20] = assay: Induction of apoptosis in human K562/ADR cells assessed as necrotic cells at 0.1 uM pretreated with ROS scavenger NAC for 2 hrs followed by compound addition after 48 hrs by Annexin V-APC/7-AAD staining based flow cytometry (reference value: 0.26%); type: functional
[21] = biological target: c-Jun N-terminal kinase, JNK (Homo sapiens) (UniProt P45983+P53779+P45984); assay: Induction of JNK phosphorylation in human K562/ADR cells assessed as ratio of phosphorylated JNK to beta-actin level at 0.1 uM measured after 48 hrs by Western blotting (reference value: 0.46); type: cell-based
K562/Adr [22] = assay: Induction of apoptosis in human K562/ADR cells assessed as ratio of cleaved caspase-9 to beta-actin level at 0.1 uM pretreated with MAPK inhibitor SP600125 for 1 hr followed by compound addition measured after 48 hrs by Western blot analysis (reference value: 0.05); type: functional
K562/Adr [23] = assay: Induction of apoptosis in human K562/ADR cells assessed as ratio of cleaved caspase-3 to beta-actin level at 0.1 uM pretreated with MAPK inhibitor U0126 for 1 hr followed by compound addition measured after 48 hrs by Western blot analysis (reference value: 0.06); type: functional
[24] = Downregulation of CDK2 expression in human K562/ADR cells assessed as ratio of CDK2 to beta-actin level at 0.1 uM measured after 48 hrs by Western blot analysis (reference value: 0.65); type: functional, cell-based
[25] = biological target: MAP kinase p38 (Homo sapiens) (UniProt O15264+Q15759+Q16539+P53778); assay: Induction of P38 phosphorylation in human K562/ADR cells assessed as ratio of phosphorylated p38 to beta-actin level at 0.1 uM pretreated with MAPK inhibitor U0126 for 1 hr followed by compound addition after 48 hrs by Western blotting method (reference value: 0.25); type: cell-based

COc1cc([C@@H]2c3cc4c(cc3[C@H](OC(=O)c3ccco3)[C@H]3COC(=O)[C@H]23)OCO4)cc(OC)c1OC
Ratio [1]: 0.35 | Ratio [2]: 0.26 | Activity (K562/Adr [3]): 3.42% | Ratio [4]: 0.15 | Ratio (K562/Adr [5]): 0.22 | Ratio (K562/Adr [6]): 0.15 | Activity (K562/Adr [7]): 30.33% | Ratio (K562/Adr [8]): 0.51 | Activity (K562/Adr [9]): 6.84% | Ratio (K562/Adr [10]): 0.43 | Ratio (K562/Adr [11]): 0.33 | Activity (K562/Adr [12]): 5.49% | IC50 [13]: 32 nM | Ratio [14]: 0.26 | viability at 0.1 µM (K562/Adr [15]): 65.5% | fold change (FC) (K562/Adr [16]): 2.396 | Ratio [17]: 0.66 | Ratio [18]: 0.31 | Activity (K562/Adr [19]): 40.45% | Activity (K562/Adr [20]): 2.14% | Ratio [21]: 0.83 | Ratio (K562/Adr [22]): 0.47 | Ratio (K562/Adr [23]): 0.49 | Ratio [24]: 0.14 | Ratio [25]: 0.21
